Test results: US20250179061A1 (SIRONAX LTD., priority 2022, published 2025)
Counter-ions that a name gives are not always drawn.

These molecules were tested on HT-29 cells (assay: HT-29 necroptosis cell viability assay (TNF-α/SMAC mimetic/zVAD-FMK, CellTiter-Glo)). Details: Homo sapiens, HT-29, HT-29 cells, necroptosis induced by TNF-α/SMAC mimetic/zVAD-FMK, CellTiter-Glo; read-out: Activity (IC50 class).
Type: cell-based
Procedure, shortened: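 HT-29 cells (~5,000/well, overnight) in FBS-free McCoy's 5A with TNF-α 10 ng/ml, SMAC mimetic 6 μM and zVAD-FMK 10 μM plus 10-point 1:3 compound titration, 20 h at 37°C. ATP measured by CellTiter-Glo luminescence; IC50 as geometric mean of duplicates.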

O=C1NC2(CO1)CN(c1cc(Oc3ccc(-n4ncn(Cc5c(F)cccc5F)c4=O)cc3F)c(F)cn1)C2 [Example 656, 2-[4-[4-[4-[(2,6-difluorophenyl)methyl]-5-oxo-1,2,4-triazol-1-yl]-2-fluoro-phenoxy]-5-fluoro-2-pyridyl]-7-oxa-2,5-diazaspiro[3.4]octan-6-one] was tested, and the IC50 was less than 100 nM.

Same assay, conditions: Homo sapiens, HT-29, HT-29 necroptosis cell viability assay; class symbols for IC50; read-out: Activity

Compared with COc1cc(Oc2nc(C)c(-n3ncn(Cc4c(F)cccc4F)c3=O)s2)ccn1 [Example 169, 4-(2,6-difluorobenzyl)-2-(2-((2-methoxypyridin-4-yl)oxy)-4-methylthiazol-5-yl)-2,4-dihydro-3H-1,2,4-triazol-3-one], COc1cc(S(=O)(=O)c2ccc(-n3ncn(Cc4c(F)cccc4F)c3=O)cc2)ccn1 [Example 618, 4-(2,6-difluorobenzyl)-2-(4-((2-methoxypyridin-4-yl)sulfonyl)phenyl)-2,4-dihydro-3H-1,2,4-triazol-3-one] is lower in IC50: 1000 to 10000 nM for the first, less than 100 nM for the second.

Compared with Cc1nc(N2CC(C)(N)C2)sc1Cc1ccc(-n2ncn(Cc3c(F)cccc3F)c2=O)cc1 [Example 509, 2-(4-((2-(3-amino-3-methylazetidin-1-yl)-4-methylthiazol-5-yl)methyl)phenyl)-4-(2,6-difluorobenzyl)-2,4-dihydro-3H-1,2,4-triazol-3-one], Cc1nc(N2CC(C)(N)C2)sc1C(=O)c1ccc(-n2ncn(Cc3c(F)cccc3F)c2=O)cc1 [Example 507, 2-(4-(2-(3-amino-3-methylazetidin-1-yl)-4-methylthiazole-5-carbonyl)phenyl)-4-(2,6-difluorobenzyl)-2,4-dihydro-3H-1,2,4-triazol-3-one trifluoroacetate] is higher in IC50: less than 100 nM for the first, 100 to 1000 nM for the second.

CNC(=O)c1nc(C)c(Oc2ccc(-n3ncn(Cc4ncccc4Cl)c3=O)cc2F)s1 [Example 589, 5-(4-(4-((3-chloropyridin-2-yl)methyl)-5-oxo-4,5-dihydro-1H-1,2,4-triazol-1-yl)-2-fluorophenoxy)-N,4-dimethylthiazole-2-carboxamide] and Cc1nc(C(=O)NN)sc1Oc1ccc(-n2ncn(Cc3ccccc3F)c2=O)cc1F [Example 596, 5-(2-fluoro-4-(4-(2-fluorobenzyl)-5-oxo-4,5-dihydro-1H-1,2,4-triazol-1-yl)phenoxy)-4-methylthiazole-2-carbohydrazide] cannot be ordered by IC50: less than 100 nM for the first, less than 100 nM for the second.

Compared with Cc1nn(-c2ccc(S(=O)(=O)N3CCN(C4CCCC4)CC3)cc2)c(=O)n1Cc1ccccc1 [Example 619, 4-benzyl-2-(4-((4-cyclopentylpiperazin-1-yl)sulfonyl)phenyl)-5-methyl-2,4-dihydro-3H-1,2,4-triazol-3-one], Cc1nn(-c2ccc(S(=O)(=O)N3CCN(CC4CCC4)CC3)cc2)c(=O)n1Cc1ccccc1 [Example 624] is lower in IC50: greater than 10000 nM for the first, 1000 to 10000 nM for the second.

First: O=C(CC1CC1)Nc1cc(Oc2ccc(-n3ncn(Cc4c(F)cccc4F)c3=O)cc2)ccn1 [Example 520, 2-cyclopropyl-N-[4-[4-[4-[(2,6-difluorophenyl)methyl]-5-oxo-1,2,4-triazol-1-yl]phenoxy]-2-pyridyl]acetamide]
Second: CCOC1CN(c2cc(S(=O)(=O)c3ccc(-n4ncn(Cc5c(F)cccc5F)c4=O)cc3)ccn2)C1 [Example 492, 4-(2,6-difluorobenzyl)-2-(4-((2-(3-ethoxyazetidin-1-yl)pyridin-4-yl)sulfonyl)phenyl)-2,4-dihydro-3H-1,2,4-triazol-3-one]
The IC50 of the first is higher: 100 to 1000 nM for the first, less than 100 nM for the second. The second is the more potent here.

CCOC1CN(c2nccc(Oc3ccc(-n4ncn(Cc5c(F)cccc5F)c4=O)cc3Cl)c2F)C1 [Example 494, 2-(3-chloro-4-((2-(3-ethoxyazetidin-1-yl)-3-fluoropyridin-4-yl)oxy)phenyl)-4-(2,6-difluorobenzyl)-2,4-dihydro-3H-1,2,4-triazol-3-one] and CCNC(=O)c1nc(C)c(Oc2ccc(-n3ncn(Cc4c(F)cccc4F)c3=O)cc2F)s1 [Example 610, 5-(4-(4-(2,6-difluorobenzyl)-5-oxo-4,5-dihydro-1H-1,2,4-triazol-1-yl)-2-fluorophenoxy)-N-ethyl-4-methylthiazole-2-carboxamide] cannot be ordered by IC50: less than 100 nM for the first, less than 100 nM for the second.

Cc1nc(C(=O)N2CC3(COC3)C2)sc1Oc1ccc(-n2ncn(Cc3ccccc3F)c2=O)cc1F [Example 605, 2-(3-fluoro-4-((4-methyl-2-(2-oxa-6-azaspiro[3.3]heptane-6-carbonyl)thiazol-5-yl)oxy)phenyl)-4-(2-fluorobenzyl)-2,4-dihydro-3H-1,2,4-triazol-3-one] showed an IC50 of less than 100 nM.

Same assay, conditions: Homo sapiens, HT-29, HT-29 necroptosis cell viability, IC50 class symbols; read-out: Activity

Compared with COC1(C#N)CN(c2ccnc(Cl)c2Oc2ccc(-n3ncn(Cc4c(F)cccc4F)c3=O)cc2)C1 [Example 359, 1-(2-chloro-3-(4-(4-(2,6-difluorobenzyl)-5-oxo-4,5-dihydro-1H-1,2,4-triazol-1-yl)phenoxy)pyridin-4-yl)-3-methoxyazetidine-3-carbonitrile], Cc1nc(N2CCC(C)(C#N)C2)sc1Oc1ccc(-n2ncn(Cc3c(F)cccc3F)c2=O)cc1 (stereo not drawn) [Example 454, 1-(5-(4-(4-(2,6-difluorobenzyl)-5-oxo-4,5-dihydro-1H-1,2,4-triazol-1-yl)phenoxy)-4-methylthiazol-2-yl)-3-methylpyrrolidine-3-carbonitrile] is lower in IC50: 100 to 1000 nM for the first, less than 100 nM for the second.

N#C[C@H]1CCN(c2cc(Oc3ccc(-n4ncn(Cc5c(F)cccc5F)c4=O)cc3)ccn2)C1 [Example 401, (S)-1-(4-(4-(4-(2,6-difluorobenzyl)-5-oxo-4,5-dihydro-1H-1,2,4-triazol-1-yl)phenoxy)pyridin-2-yl)pyrrolidine-3-carbonitrile] and C[C@H]1C[C@@H](C#N)CN1c1cc(Oc2ccc(-n3ncn(Cc4c(F)cccc4F)c3=O)cc2)ccn1 [Example 282, (3R,5S)-1-(4-(4-(4-(2,6-difluorobenzyl)-5-oxo-4,5-dihydro-1H-1,2,4-triazol-1-yl)phenoxy)pyridin-2-yl)-5-methylpyrrolidine-3-carbonitrile] cannot be ordered by IC50: less than 100 nM for the first, less than 100 nM for the second.

Compared with CC(C)(C)OC(=O)Nc1cc(Oc2ccc(-n3ncn(Cc4ccccc4)c3=O)cc2)ccn1 [Example 311, tert-butyl (4-(4-(4-benzyl-5-oxo-4,5-dihydro-1H-1,2,4-triazol-1-yl)phenoxy)pyridin-2-yl)carbamate], CC(C)(C)OC(=O)N1CCC12CN(c1cc(Oc3ccc(-n4ncn(Cc5c(F)cccc5F)c4=O)cc3)ccn1)C2 [Example 317, tert-butyl 6-(4-(4-(4-(2,6-difluorobenzyl)-5-oxo-4,5-dihydro-1H-1,2,4-triazol-1-yl)phenoxy)pyridin-2-yl)-1,6-diazaspiro[3.3]heptane-1-carboxylate] is higher in IC50: 100 to 1000 nM for the first, 1000 to 10000 nM for the second.

First: C[C@H]1[C@@H](N(C)C)CN1c1cc(Oc2ccc(-n3ncn(Cc4c(F)cccc4F)c3=O)cc2F)c(F)cn1 [Example 241, 4-(2,6-difluorobenzyl)-2-(4-((2-((2S,3S)-3-(dimethylamino)-2-methylazetidin-1-yl)-5-fluoropyridin-4-yl)oxy)-3-fluorophenyl)-2,4-dihydro-3H-1,2,4-triazol-3-one]
Second: Nc1cc(Oc2ccc(-n3ncn(Cc4c(F)cccc4F)c3=O)cc2F)c(F)cn1 [Example 223, 2-(4-((2-amino-5-fluoropyridin-4-yl)oxy)-3-fluorophenyl)-4-(2,6-difluorobenzyl)-2,4-dihydro-3H-1,2,4-triazol-3-one]
The IC50 of the first is lower: less than 100 nM for the first, 100 to 1000 nM for the second. The first is the more potent here.

Cc1nc(C(C)(C)O)sc1Oc1ccc(-n2ncn(Cc3ccccc3F)c2=O)cc1F [Example 469, 2-(3-fluoro-4-((2-(2-hydroxypropan-2-yl)-4-methylthiazol-5-yl)oxy)phenyl)-4-(2-fluorobenzyl)-2,4-dihydro-3H-1,2,4-triazol-3-one] and Cc1cnc(N2CC(C)(C#N)C2)cc1Oc1ccc(-n2ncn(Cc3c(F)cccc3F)c2=O)cc1Cl [Example 398, 1-(4-(2-chloro-4-(4-(2,6-difluorobenzyl)-5-oxo-4,5-dihydro-1H-1,2,4-triazol-1-yl)phenoxy)-5-methylpyridin-2-yl)-3-methylazetidine-3-carbonitrile] cannot be ordered by IC50: less than 100 nM for the first, less than 100 nM for the second.

Molecule CCOC1CN(c2nccc(Oc3ccc(-n4ncn(Cc5c(F)cccc5F)c4=O)cc3)c2N)C1 [Example 409, 2-(4-((3-amino-2-(3-ethoxyazetidin-1-yl)pyridin-4-yl)oxy)phenyl)-4-(2,6-difluorobenzyl)-2,4-dihydro-3H-1,2,4-triazol-3-one] has an IC50 of 100 to 1000 nM.

Same assay, conditions: Homo sapiens; HT-29 cells stimulated with TNF-α (10 ng/ml), SMAC mimetic (6 μM) and zVAD-FMK (10 μM); 20 hours; CellTiter-Glo ATP luminescence; geometric mean IC50 from 10 points; read-out: Activity

Cc1nc(C(N)=O)sc1Oc1ccc(-n2nc3n(c2=O)C(c2ccccc2)CC3F)cc1F (stereo not drawn) [Example 81, 5-(2-fluoro-4-(7-fluoro-3-oxo-5-phenyl-3,5,6,7-tetrahydro-2H-pyrrolo[2,1-c][1,2,4]triazol-2-yl)phenoxy)-4-methylthiazole-2-carboxamide] and Cc1nc(C(=O)NCCN2CCOCC2)sc1Oc1ccc(-n2ncn(Cc3ccccc3F)c2=O)cc1F [Example 25, 5-(2-fluoro-4-(4-(2-fluorobenzyl)-5-oxo-4,5-dihydro-1H-1,2,4-triazol-1-yl)phenoxy)-4-methyl-N-(2-morpholinoethyl)thiazole-2-carboxamide] cannot be ordered by IC50: less than 100 nM for the first, less than 100 nM for the second.

Compared with Nc1ncc(Oc2ccc(-n3ncn(Cc4c(F)cccc4F)c3=O)cc2)s1 [Example 90, 2-(4-((2-aminothiazol-5-yl)oxy)phenyl)-4-(2,6-difluorobenzyl)-2,4-dihydro-3H-1,2,4-triazol-3-one], Cc1nc(N2CC(C#N)C2C)sc1Oc1ccc(-n2ncn(Cc3c(F)cccc3F)c2=O)cc1 (stereo not drawn) [Example 48, 1-(5-(4-(4-(2,6-difluorobenzyl)-5-oxo-4,5-dihydro-1H-1,2,4-triazol-1-yl)phenoxy)-4-methylthiazol-2-yl)-2-methylazetidine-3-carbonitrile] is lower in IC50: 100 to 1000 nM for the first, less than 100 nM for the second.

For Cc1nc(C#N)sc1Oc1ccc(-n2ncn(Cc3cnccc3Cl)c2=O)cc1F [Example 38, 5-(4-(4-((4-chloropyridin-3-yl)methyl)-5-oxo-4,5-dihydro-1H-1,2,4-triazol-1-yl)-2-fluorophenoxy)-4-methylthiazole-2-carbonitrile], the IC50 was less than 100 nM.
